{"source": "patent US10827753B2", "about": "“Compositions and methods for controlling nematodes” (Monsanto Technology LLC, priority 2007, dated 2020)", "key": {"mice": {"tested_on": "mice", "conditions": "cited from earlier work"}, "Meloidogyne incognita [1]": {"tested_on": "Meloidogyne incognita", "experiment": "Fall nematicidal field testing on squash microplots", "assay_type": "in vivo", "conditions": "for control of root galling compared with oxamyl at an equivalent rate: 2 kg/ha", "excerpt": "The test site was located at 3511 Highway F in New Melle, Mo., Saint Charles county. The soil was a native prairie/pasture covering silty clay loam soil. Holes were dug using a Bobcat 763 skid loader with a 12-inch auger to a depth of 18 inches. Total volume of each hole was about 1.2 cubic feet. Six cubic yards of topsoil and 9 tons of river sand were purchased from Dardenne Farms Topsoil. Mixing to a ratio of 4 volumes sand to 1 volume soil was accomplished using a trailer-mounted 9 cubic foot concrete mixer. Holes were filled and then re-filled 5 days later after settling. The mixture was 92.5% sand, 2.5% silt, and 5% clay. Organic matter was 0.2% and pH was 6.8.\nTreatments were arranged in a block design with the blocks laid out perpendicular to the primary slope and parallel to secondary slope. There are 7 inoculated controls and 5 non-inoculated controls and the distributions of disease severity appeared independent of location.\nApplication rates are expressed as kg of active material per hectare, and the mg per plot is based on the surface area of the bored and filled holes (0.000008559 Ha). The DC compounds were formulated immediately before application as follows: 1) the amount required to treat all six replicates was dissolved in 300 ml of acetone, 2) for each plot 50 ml of that solution was added to a graduated cylinder with 2 ml of 12.5% Triton X100 and the volume was raised to 500 ml with tap water. The resultant mix is the same as used in the standard greenhouse assays (10% acetone, 0.05%×100). The oxamyl treatments were prepared from Vydate 2 L formulated the same way. The 500 ml was placed in a watering can and the entire volume was evenly sprinkled over the surface of the plot. No runoff occurred and pooling, if any, was short lived. The final drench volume was 0.58 ml/cm^2, compared to 0.2 ml/cm^2 used in our greenhouse, however the microplots are much deeper so the drench volume applied per soil volume treated is roughly the same.\nMeloidogyne incognita eggs were harvested over a two week period and stored at approximately 5° C. until needed. A stock of 5.6 million vermiform eggs was adjusted to 9000/ml in 620 ml. One day after treatment, two holes were made in each plot about 7 cm apart and equidistant from the squash plants. Five ml of egg suspension was pipetted into each hole, which was then sealed and the plot lightly watered. A total of 90,000 vermiform eggs were added to each plot.\nThe first root evaluation was at 28 DAT. The tops were cut off and weighed immediately in the field, and the roots were carefully dug out so as not to disturb the remaining plant."}, "Meloidogyne incognita [2]": {"tested_on": "Meloidogyne incognita", "experiment": "Summer field evaluation of pre-plant incorporated compounds on squash", "assay_type": "in vivo", "how_it_was_run": "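PPI simulation: compound in acetone/Triton X-100 and water mixed into 80% sand/20% silt loam with chopped galled tomato roots, filling top 15 cm of 6 replicate field plots. M. incognita eggs/larvae (100 k per plot) injected 5 cm deep; three-week-old squash cv. Liberator III planted 4 days after treatment.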"}}}
{"molecule": "CCOP(=O)(NC(C)C)Oc1ccc(SC)c(C)c1", "note": "(stereo not shown) [Fenamiphos, fenamiphos, reference compound]", "values": [{"measurement": "oral LD50 in mice", "setting": "mice", "result": 22.7, "unit": "mg/kg"}]}
{"molecule": "Brc1ccc(-c2cnc(-c3cccs3)o2)cc1", "note": "[compound 4776]", "values": [{"measurement": "RG28 = % root galls at 28 days after treatment", "setting": "Meloidogyne incognita [1]; 2 kg ai/ha drench, squash", "result": 19.0, "unit": "%"}, {"measurement": "RG43 = % root galls at 43 days after treatment", "setting": "Meloidogyne incognita [1]; 2 kg ai/ha drench, squash", "result": 26.8, "unit": "%"}, {"measurement": "control of root galling compared with oxamyl at an equivalent rate", "setting": "Meloidogyne incognita [1]; 28 day time point", "result": "statistically better than oxamyl"}, {"measurement": "control of root galling compared with oxamyl at an equivalent rate", "setting": "Meloidogyne incognita [1]; 43 day time point", "result": "statistically better than oxamyl"}]}
{"molecule": "Cc1cc(Cl)ccc1-c1noc(-c2ccco2)n1", "note": "[compound 5823]", "values": [{"measurement": "0-3 vigor 16 DAP", "setting": "Meloidogyne incognita [2]; 4 kg (kg/ha) PPI, squash", "result": 3.0}, {"measurement": "0-3 vigor 21 DAP", "setting": "Meloidogyne incognita [2]; 4 kg (kg/ha) PPI, squash", "result": 3.0}, {"measurement": "feeder root (3 = ave) 31 DAP", "setting": "Meloidogyne incognita [2]; 4 kg (kg/ha) PPI, squash", "result": 2.7}, {"measurement": "gall % 31 DAP", "setting": "Meloidogyne incognita [2]; 4 kg (kg/ha) PPI, squash", "result": 3, "unit": "%"}, {"measurement": "root wgt (g) 31 DAP", "setting": "Meloidogyne incognita [2]; 4 kg (kg/ha) PPI, squash", "result": 22.6, "unit": "g"}, {"measurement": "top wgt (lbs) 31 DAP", "setting": "Meloidogyne incognita [2]; 4 kg (kg/ha) PPI, squash", "result": 1.45, "unit": "lbs"}, {"measurement": "total fruit (lbs)", "setting": "Meloidogyne incognita [2]; 4 kg (kg/ha) PPI, squash", "result": 1.44, "unit": "lbs"}, {"measurement": "control of M. incognita (in words)", "setting": "Meloidogyne incognita [2]; PPI application at 4 kg/ha", "result": "excellent control"}]}
